Source: ChEMBL document CHEMBL1201862, “PubChem BioAssay data set” (2004)
Activity calls are given as the source filed them.

Tests used:
[1] = molecular target: Phosphoethanolamine/phosphocholine phosphatase (Homo sapiens, UniProt Q8TCT1); assay: SAR assay for compounds that inhibit PHOSPHO1. [Related pubchem assays (depositor defined):AID1545, AID1565, AID1574]
[2] = molecular target: DNA dC->dU-editing enzyme APOBEC-3G (Homo sapiens, UniProt Q9HC16); assay: Dose Response confirmation of small molecule APOBEC3G DNA Deaminase Inhibitors via a fluorescence-based single-stranded DNA deaminase assay. [Related pubchem assays (depositor defined):AID493012, AID493028]; format: functional
[3] = molecular target: T1, Alkaline phosphatase, tissue-nonspecific isozyme (Homo sapiens, UniProt P05186); assay: potency against alkaline phosphatase TNAP – biochemical, luminescent, dose response, SAR follow-up (AID 1056)
T1 sequence (P05186 whole entry): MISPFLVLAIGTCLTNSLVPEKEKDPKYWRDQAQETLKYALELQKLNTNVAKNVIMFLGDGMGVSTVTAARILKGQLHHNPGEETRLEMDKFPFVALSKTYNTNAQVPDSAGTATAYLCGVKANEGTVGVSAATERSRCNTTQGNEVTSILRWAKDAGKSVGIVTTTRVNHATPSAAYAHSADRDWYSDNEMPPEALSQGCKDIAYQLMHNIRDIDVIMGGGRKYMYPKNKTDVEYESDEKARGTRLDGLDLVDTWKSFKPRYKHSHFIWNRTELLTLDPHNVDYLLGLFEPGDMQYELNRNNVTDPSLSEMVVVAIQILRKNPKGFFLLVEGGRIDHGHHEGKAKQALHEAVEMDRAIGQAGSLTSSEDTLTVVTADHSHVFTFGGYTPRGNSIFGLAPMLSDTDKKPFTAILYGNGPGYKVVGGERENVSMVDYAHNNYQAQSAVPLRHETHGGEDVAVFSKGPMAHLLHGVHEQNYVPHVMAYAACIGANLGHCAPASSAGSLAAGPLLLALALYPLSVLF

[4] = Fluorescence-based cell-based high throughput dose response assay for inhibitors of the interaction of nucleotide-binding oligomerization domain containing 2 (NOD2) and the receptor-interacting serine-threonine kinase 2 (RIPK2).; format: functional; conditions: Homo sapiens
Beta Lactamase = Beta Lactamase (Pseudomonas aeruginosa, UniProt Q932Y6); assay: BLA reporter interference, concentration series – BLA reporter cells, FRET fluorescence, artefact control for NOD2-RIPK2 interaction inhibitor project, dose response (AID 651552); format: functional, cell-based
[5] = viability loss in HeLa cells – cytotoxicity control for MgcRacGAP inhibitor project, dose response (AID 624300); format: functional
[6] = molecular target: T2, Rac GTPase-activating protein 1 (Homo sapiens, UniProt Q9H0H5); assay: blockers of MgcRacGAP-driven Rac1 GTP hydrolysis – biochemical, ADP Hunter fluorescence, primary and confirmatory, confirmation (AID 624330); format: functional
T2 sequence (Q9H0H5 whole entry): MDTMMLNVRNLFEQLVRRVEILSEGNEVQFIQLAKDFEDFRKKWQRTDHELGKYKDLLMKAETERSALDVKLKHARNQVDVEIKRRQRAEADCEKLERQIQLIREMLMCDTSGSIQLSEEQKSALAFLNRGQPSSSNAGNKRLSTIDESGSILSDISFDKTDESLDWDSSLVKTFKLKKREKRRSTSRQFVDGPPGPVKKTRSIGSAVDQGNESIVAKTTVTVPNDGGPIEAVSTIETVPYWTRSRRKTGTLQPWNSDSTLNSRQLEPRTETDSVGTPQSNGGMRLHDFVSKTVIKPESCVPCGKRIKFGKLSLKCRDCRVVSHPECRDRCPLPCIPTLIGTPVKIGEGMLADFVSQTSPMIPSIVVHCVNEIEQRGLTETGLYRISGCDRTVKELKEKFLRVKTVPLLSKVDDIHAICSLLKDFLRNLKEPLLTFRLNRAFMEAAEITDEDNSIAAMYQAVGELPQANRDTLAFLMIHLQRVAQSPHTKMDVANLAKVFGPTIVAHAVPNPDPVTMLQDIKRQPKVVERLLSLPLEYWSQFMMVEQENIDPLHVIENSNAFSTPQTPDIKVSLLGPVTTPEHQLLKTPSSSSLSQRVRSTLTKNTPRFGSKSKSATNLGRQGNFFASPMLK

[7] = blockers of bursicon-stimulated LGR2 cAMP reporter – cell-based, HEK293, CRE-luciferase reporter, cherry pick, set 2, dose response (AID 743343); format: functional;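 also: transfected cells were stimulated with diluted bursicon conditioned medium after compound addition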
[8] = blockade of melanocortin 4 receptor signaling – cell-based, plate reader, cherry pick, counter-screen for LGR2 antagonist project, dose response (AID 743444); format: functional;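 also: transfected HEK 293 cells stimulated with alpha-MSH peptide; potency of inhibitors of the alpha-MSH evoked signal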
[9] = Luminescence Cell-Based Dose Response HTS to Identify Activators of Luciferase Translation or Activity in H4 […] Cells. [Related pubchem assays: 1829 (Project Summary), 1814 (Primary HTS)]; format: functional
[10] = molecular target: Alkaline phosphatase, placental type (Homo sapiens, UniProt P05187); assay: human placental alkaline phosphatase inhibition – biochemical, luminescence, confirmation (AID 1512); format: functional
[11] = molecular target: G-protein coupled receptor 55 (Homo sapiens, UniProt Q9Y2T6); assay: selective activators of receptor GPR55 – imaging, U2OS cells, beta-arrestin-GFP redistribution, primary screen (AID 1961); format: functional
[12] = tested on: Streptococcus sp. 'group A'; assay: Streptococcus pyogenes SK(-)GAS viability under kanamycin – luminescence, BacTiterGlo, confirmation, counter-screen for streptokinase expression inhibitor project, dose response (AID 1900); format: functional, organism-based
Streptokinase A = molecular target: T3, Streptokinase A (Streptococcus pyogenes serotype M1, UniProt P10520); assay: viability-normalized secreted streptokinase activity reduction – plasminogen activation absorbance, OD405, dose response (AID 1914); format: functional, Streptococcus pyogenes M1 GAS;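 also: secreted streptokinase activity via plasminogen activation per viability signal from cell pellet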
T3 sequence (P10520 whole entry): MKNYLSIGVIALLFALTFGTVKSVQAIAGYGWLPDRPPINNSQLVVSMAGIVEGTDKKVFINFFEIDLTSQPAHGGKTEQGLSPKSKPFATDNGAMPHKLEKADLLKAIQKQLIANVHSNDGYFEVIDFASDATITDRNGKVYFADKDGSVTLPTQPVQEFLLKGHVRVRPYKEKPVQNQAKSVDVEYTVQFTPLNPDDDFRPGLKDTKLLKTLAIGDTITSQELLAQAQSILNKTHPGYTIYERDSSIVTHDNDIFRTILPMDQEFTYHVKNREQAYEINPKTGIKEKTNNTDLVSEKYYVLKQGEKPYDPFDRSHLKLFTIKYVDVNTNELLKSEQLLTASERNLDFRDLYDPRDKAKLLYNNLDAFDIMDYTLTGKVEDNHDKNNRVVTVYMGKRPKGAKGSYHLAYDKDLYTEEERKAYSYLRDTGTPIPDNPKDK

Streptococcus = assay: GAS UMAA2166 growth inhibition – luminescence, BacTiterGlo, counter-screen for streptokinase expression inhibitor project, dose response (AID 1915); format: functional, organism-based;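 also: potency for reduction of bacterial viability or growth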
[13] = THP-1 cell cytotoxicity, dose response, cytotoxicity control for non-replicating M. tuberculosis project (AID 489025); format: functional
[14] = Vero E6 cell cytotoxicity, dose response, cytotoxicity control for non-replicating M. tuberculosis project, secondary assay (AID 492998); format: functional, VeroE6; conditions: Vero C1008
cells = format: functional

Phosphoethanolamine/phosphocholine phosphatase, sequence (Q8TCT1 whole entry): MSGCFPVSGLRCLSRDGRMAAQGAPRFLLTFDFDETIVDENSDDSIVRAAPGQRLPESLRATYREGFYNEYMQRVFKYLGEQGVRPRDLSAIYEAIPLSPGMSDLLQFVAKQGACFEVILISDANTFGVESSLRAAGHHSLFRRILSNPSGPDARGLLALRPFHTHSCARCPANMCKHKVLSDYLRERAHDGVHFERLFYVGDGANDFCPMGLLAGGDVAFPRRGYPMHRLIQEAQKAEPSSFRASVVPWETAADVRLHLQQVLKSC
DNA dC->dU-editing enzyme APOBEC-3G, sequence (Q9HC16 whole entry): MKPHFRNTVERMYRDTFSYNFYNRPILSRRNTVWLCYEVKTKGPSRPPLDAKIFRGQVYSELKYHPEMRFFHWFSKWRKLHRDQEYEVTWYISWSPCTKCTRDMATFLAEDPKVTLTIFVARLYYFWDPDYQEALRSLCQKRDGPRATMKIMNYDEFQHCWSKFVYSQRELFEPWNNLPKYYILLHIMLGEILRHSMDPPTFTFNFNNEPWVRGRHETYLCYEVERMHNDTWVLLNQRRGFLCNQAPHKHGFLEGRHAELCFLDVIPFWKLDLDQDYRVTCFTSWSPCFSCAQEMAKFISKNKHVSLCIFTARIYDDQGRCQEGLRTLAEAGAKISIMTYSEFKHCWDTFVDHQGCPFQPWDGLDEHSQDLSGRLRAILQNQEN
G-protein coupled receptor 55, sequence (Q9Y2T6 whole entry): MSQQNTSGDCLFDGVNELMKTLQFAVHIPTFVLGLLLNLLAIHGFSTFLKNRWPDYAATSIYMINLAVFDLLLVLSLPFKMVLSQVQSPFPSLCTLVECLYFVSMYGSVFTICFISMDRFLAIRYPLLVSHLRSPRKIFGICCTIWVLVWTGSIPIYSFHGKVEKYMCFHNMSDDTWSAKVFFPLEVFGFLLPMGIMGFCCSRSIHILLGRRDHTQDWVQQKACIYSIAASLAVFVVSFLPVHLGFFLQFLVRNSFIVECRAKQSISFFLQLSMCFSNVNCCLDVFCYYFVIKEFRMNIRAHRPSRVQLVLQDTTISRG
Alkaline phosphatase, placental type, sequence (P05187 whole entry): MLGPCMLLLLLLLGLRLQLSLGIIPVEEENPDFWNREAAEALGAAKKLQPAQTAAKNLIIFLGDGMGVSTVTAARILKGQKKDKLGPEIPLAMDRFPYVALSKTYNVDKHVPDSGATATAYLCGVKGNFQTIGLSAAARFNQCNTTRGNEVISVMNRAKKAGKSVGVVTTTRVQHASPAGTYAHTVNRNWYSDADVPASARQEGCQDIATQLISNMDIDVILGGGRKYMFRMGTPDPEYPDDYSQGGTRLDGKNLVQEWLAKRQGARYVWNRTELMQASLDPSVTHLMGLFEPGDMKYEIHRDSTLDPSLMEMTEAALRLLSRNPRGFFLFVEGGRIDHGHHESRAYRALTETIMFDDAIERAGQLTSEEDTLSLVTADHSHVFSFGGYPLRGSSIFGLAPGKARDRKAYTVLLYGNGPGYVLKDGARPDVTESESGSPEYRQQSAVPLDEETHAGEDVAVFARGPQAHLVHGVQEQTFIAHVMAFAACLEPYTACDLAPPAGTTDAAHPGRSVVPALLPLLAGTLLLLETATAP
Beta Lactamase, sequence (Q932Y6 whole entry): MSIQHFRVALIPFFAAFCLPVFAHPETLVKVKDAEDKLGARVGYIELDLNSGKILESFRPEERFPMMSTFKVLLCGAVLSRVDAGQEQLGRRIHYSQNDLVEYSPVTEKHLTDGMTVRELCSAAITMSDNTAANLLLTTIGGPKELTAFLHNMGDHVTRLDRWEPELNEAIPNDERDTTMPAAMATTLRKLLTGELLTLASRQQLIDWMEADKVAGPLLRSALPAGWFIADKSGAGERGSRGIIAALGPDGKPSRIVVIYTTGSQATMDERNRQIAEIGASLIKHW

With COc1ccc(-n2sc3ccc(F)cc3c2=O)cc1 the IC50 [1] was 6.67 µM (inactive), the IC50 [2] was 10.8 µM (active) and the IC50 [3] was > 100 µM (inactive). For the same compound, the IC50 [4] was 5.42 µM (active), the IC50 (Beta Lactamase) was 19.9 µM (inactive) and the CC50 [5] was 100 µM (active). For the same compound, the IC50 [6] was 45.2 µM (active), the AC50 [7] was 6.6 µM (active) and the AC50 [8] was 5.92 µM (active).

For Clc1ccccc1-c1n[nH]c(-c2ccccc2)n1, the EC50 [9] was 0.348 µM (active), the IC50 [10] was > 100 µM (inactive) and the IC50 [3] was 0.641 µM (active).

With CC(C)(C)OC(=O)CN1C(=O)S/C(=C\c2ccc(-c3cccc(C(=O)O)c3)o2)C1=O the EC50 [11] was 4.23 µM (active).

With COc1ccc(C(=O)Nc2nnc(-c3ccccc3)o2)cc1OC the EC50 [12] was 6.46 µM (active), the EC50 (Streptokinase A) was > 150 µM (not active) and the EC50 (Streptococcus) was > 150 µM (not active). For the same compound, the CC50 [13] was > 40 µM (active), the CC50 [14] was > 20 µM (active) and the IC50 (cells) was 17.2 µM (active).
